Experimental findings from patent US11345659B2, “Pipecolic esters for inhibition of the proteasome” (THE BOARD OF REGENTS OF THE UNIVERSY OF TEXAS SYSTEM, priority 2018, dated 2022) are described below.

Common to all, as to assay type: biochemical
Experiment [1] deals with T1, 20 S human housekeeping proteasome (Homo sapiens, UniProt P25787+P25789).
T1 construct: purified from erythrocytes; purchased Enzo Life Sciences, Inc. (Farmingdale, N.Y.); host or cells: human erythrocytes
The experiment in a line: ChT-L peptidase activity of 20 S proteasome activated with Rpt5 peptide. To be noted: ChT-L, 20 S activated with Rpt5 peptide; for IC50: Suc-LLVY-AMC substrate, read-out: IC50. The method, then:
(§1) Human housekeeping 20 S and 26 S and complexes purified from erythrocytes were purchased from Enzo Life Sciences, Inc. (Farmingdale, N.Y.). The 1 mg/ml stock 20 S proteasome was diluted to 0.2 mg/ml working solution in 50 mM Tris/HCl, pH 8 containing 20% glycerol (dilution buffer). For the 26 S proteasome stock, the dilution buffer was supplemented with 2 mM ATP, 1 mM MgCl2, and 1 mM DTT (dithiothreitol). The ChT-L peptidase activity was measured as arbitrary intensity units of fluorescence emitted by 7-amino-4-methylcoumarin (AMC) released from the canonical model peptide substrate succinyl-LeuLeuValTyr-methylcoumarin (SucLLVY-MCA; Bachem Bioscience Inc., Philadelphia, Pa.), used at concentration of 100 μM. Free AMC (Sigma-Aldrich, St. Louis, Mo.) was used as the standard. The Rpt5 C-terminal peptide was synthesized (standard solid-phase peptide chemistry) and purified to at least 98% purity by GenScript (Piscataway, N.J.). The Rpt5 peptide and the peptide substrate were dissolved in dimethylsulfoxide (DMSO) and such stock solutions were stored at −20° C. The total concentration of DMSO in final reaction mixtures never exceeded 3% (vol/vol).
The reaction was carried out in 96-well plates, in 100 μL of reaction mixture, for 1 hour at 37° C. In the case of 20 S proteasome, the reaction mixture consisted of 45 mM Tris/HCl, pH 8, 100 mM KCl with premixed 10 μM Rpt5 peptide and 100 μM Suc-LLVY-MCA, to which 200 ng (nearly […]) of proteasome and desired concentration of tested compounds in 1 μL of DMSO were added. To test the activity of 26 S proteasome under conditions challenging coordination of the three pairs of peptidase active centers, a mixture of three canonical substrates specific for the ChT-L (SucLLVY-MCA), trypsin-like (T-L; BocLRR-MCA) and caspase-like (Casp-L; Z-LLE-MCA) was used with each of the substrates at 33.3 μM (100 μM of the total substrate concentration). The reaction mixture in this case consisted of 50 mM Tris/HCl, pH 8, 20 mM NaCl, premixed with the substrates and 2 mM ATP, to which 200 ng (nearly 0.1 nmol) of the 26 S working solution and desired concentration of tested compounds in 0.5 μL of DMSO were added. The reaction rates were calculated from a linear segment of kinetic curves constructed from measurements in 1-minutes intervals (Fluoroskan Ascent plate reader; Thermo Fisher Scientific Inc., Waltham, Mass.). Reaction rates were calculated using a linear fit executed by Slope Analyzer and Enzyme Kinetics applications launched within Origin Pro 2017 (OriginLab). Specific activity of the control 20 S proteasome activated with the Rpt5 peptide was in the range of 1.4 to 2.3 nanomoles of AMC product released by 1 mg of 20 S per second (1.95±0.24; n=18). Specific activity of the control 26 S proteasome challenged with three substrates reached on average 0.28±0.06 nanomoles of AMC product released by 1 mg of the enzyme per second (n=6). For comparison, degradation of the canonical Suc-LLVY-MCA substrate by the control 26 S proteasome preceded with a rate in the range of 0.6-0.8 nanomoles of AMC released per mg of the enzyme per second. The data are presented as mean±SD or as a representative set from at least 3 independent experiments.
The compounds were evaluated using the 20 S human housekeeping proteasome. It was activated with the Rpt5 derived 10-residue peptide that contains the C-terminal HbYX (hydrophobic-Tyr-any AA) motif activating the proteasome in trans and to some extend mimic the activation by the 19 S regulatory particle (Osmulski and Gaczynska (2013) Molecular pharmacology 84: 104-113; Smith et al. (2006) J. Struct. Biol. 156: 72-83; Smith et al. (2007) Mol. Cell 27: 731-744). Proteolytic activity was monitored over time using a fluorogenic peptide substrate specific for the chymotrypsin-like active center (ChT-L, Suc-LLVY-AMC) in the presence of a concentration range of the inhibitors. […]

The target of a further experiment is T2, 26 S proteasome (Homo sapiens, UniProt P25787+P25789).
T2 construct: purified from erythrocytes; purchased Enzo Life Sciences, Inc. (Farmingdale, N.Y.); host or cells: human erythrocytes
The experiment in a line: 26 S proteasome challenged with mixture of three substrates (surrogate proteinase assay). To be noted: mixture of ChT-L, T-L and Casp-L substrates, 33.3 μM each; read-out: IC50, 26 S proteasome with substrates for all three peptidases. How it is done:
as §1
The reaction was carried out in 96-well plates, in 100 μL of reaction mixture, for 1 hour at 37° C. In the case of 20 S proteasome, the reaction mixture consisted of 45 mM Tris/HCl, pH 8, 100 mM KCl with premixed 10 μM Rpt5 peptide and 100 μM Suc-LLVY-MCA, to which 200 ng (nearly […]) of proteasome and desired concentration of tested compounds in 1 μL of DMSO were added. […] The reaction rates were calculated from a linear segment of kinetic curves constructed from measurements in 1-minutes intervals (Fluoroskan Ascent plate reader; Thermo Fisher Scientific Inc., Waltham, Mass.). Reaction rates were calculated using a linear fit executed by Slope Analyzer and Enzyme Kinetics applications launched within Origin Pro 2017 (OriginLab). […]

Experiment [2] concerns the target T3, latent core 20 S proteasome (Homo sapiens, UniProt P25787+P25789).
T3 construct: purified from erythrocytes; purchased Enzo Life Sciences, Inc. (Farmingdale, N.Y.); host or cells: human erythrocytes
Nature of the experiment: Competition of compound 3 with tRpt6 peptide, ChT-L activity of latent core. To be noted: 2 μM tRpt6. From the text: According to the most recent model of the 26 S proteasome dynamic cycle, Rpt6 succeeds the Hb-Y—X containing anchor subunits Rpt5, Rpt3, and Rpt2 in docking into the α face pockets and promoting an intermediate conformation between latent and activated (open gate) proteasomes (Dong et al. ([…]) Nature 565(7737): 49-55). […] For comparison, no competition between tRpt5, expected to occupy the α5/α6 pocket, and compound 3 was detected.
Referring to FIG. 4, the C-terminal peptide derived from Rpt6 subunit compromises inhibition of the ChT-L activity of the latent core by the compound 3; however, only when added to the proteasome prior to the inhibitor. […] 1 μM compound 3 and 2 μM tRpt6 were tested. Mean±SD; n=3 to 6.

Where only a bound is given, the exact number is not on record here.

As a reminder, the IC50 is the point on the concentration scale where inhibition reaches its midpoint. For `COc1cc(CCCOC(=O)C2CCCCN2C(=O)OCc2ccccc2)cc(OC)c1OC` (racemic) [Compound 2, 1-benzyl 2-(3-(3,4,5-trimethoxyphenyl)propyl)piperidine-1,2-dicarboxylate], the IC50 in experiment [1] worked out at 11.5 µM.
Turning to `COc1cc(COC(=O)[C@@H]2CCCCN2C(=O)OCc2ccccc2)cc(OC)c1OC` (stereo in doubt) [Compound 8, 1-benzyl 2-(3,4,5-trimethoxybenzyl) piperidine-1,2-dicarboxylate], in experiment [1], the “ChT-L inhibitory activity in words” value is “significantly reduced its activity” and the IC50 was 19.8 µM.
Regarding `COc1cc(CCCOC(=O)[C@@H]2CCCCN2C(=O)OCC(C)C)cc(OC)c1OC` [Compound 4, 1-isobutyl 2-(3-(3,4,5-trimethoxyphenyl)propyl) (S)-piperidine-1,2-dicarboxylate], the IC50 in experiment [1] was 15.2 µM.
For the compound `COC(=O)N1CCCC[C@H]1C(=O)OCCCc1cc(OC)c(OC)c(OC)c1` [Compound 5, 1-methyl 2-(3-(3,4,5-trimethoxyphenyl)propyl) (S)-piperidine-1,2-dicarboxylate], in experiment [1], the “ChT-L inhibitory activity in words” value was “completely abrogated activity” and the IC50 is over 50 µM.
Regarding `COc1cc(CCCOC(=O)[C@@H]2CCCN(C(=O)OCc3ccccc3)C2)cc(OC)c1OC` [Compound 6, 1-benzyl 3-(3-(3,4,5-trimethoxyphenyl)propyl) (R)-piperidine-1,3-dicarboxylate], the IC50 in experiment [1] worked out at 14.7 µM.
Take `COc1cc(CCOC(=O)[C@@H]2CCCCN2C(=O)OCc2ccccc2)cc(OC)c1OC` [Compound 7, 1-benzyl 2-(3,4,5-trimethoxyphenethyl) (S)-piperidine-1,2-dicarboxylate]: in experiment [1], the “ChT-L inhibitory activity in words” value is listed as “significantly reduced its activity” and the IC50 was 20.1 µM.
Take `O=C(OCCCc1ccccc1)[C@@H]1CCCCN1C(=O)OCc1ccccc1` [Compound 9, 1-benzyl 2-(3-phenylpropyl) (S)-piperidine-1,2-dicarboxylate]: the IC50 in experiment [1] is 2.6 µM; on 26 S proteasome it was over 60 µM.
Regarding `CCCOC(=O)[C@@H]1CCCCN1C(=O)OCc1ccccc1` [Compound 10, 1-benzyl 2-propyl (S)-piperidine-1,2-dicarboxylate], in experiment [1], the “ChT-L inhibitory activity in words” value is “inactive” and the IC50 was over 50 µM.
The like results for `O=C(O)[C@@H]1CCCCN1C(=O)OCc1ccccc1` [Compound 11, 1-((benzyloxy)carbonyl) (S)-piperidine-2-carboxylic Acid] were, in that order, “inactive” and over 50 µM.
The like results for `COc1cc(CCCOC(=O)[C@@H]2CCCN2C(=O)OCc2ccccc2)cc(OC)c1OC` [Compound 12, 1-benzyl 2-(3-(3,4,5-trimethoxyphenyl)propyl) (S)-pyrrolidine-1,2-dicarboxylate] were, in that order, “only had modest activity” and 23.8 µM.
Regarding `O=C(OCCCc1ccccc1)[C@@H]1CCCN1C(=O)OCc1ccccc1` [Compound 13, 1-benzyl 2-(3-phenylpropyl) (S)-pyrrolidine-1,2-dicarboxylate], the IC50 in experiment [1] was determined as 6.6 µM.
As to `O=C(OCCc1ccccc1)[C@@H]1CCCN1C(=O)OCc1ccccc1` [Compound 14, 1-benzyl 2-phenethyl (S)-pyrrolidine-1,2-dicarboxylate], in experiment [1], the “ChT-L inhibitory activity in words” value is “decreased activity” and the IC50 turned out to be 19.2 µM.
For `O=C(OCc1ccccc1)[C@@H]1CCCN1C(=O)OCc1ccccc1` [Compound 15, Dibenzyl (S)-pyrrolidine-1,2-dicarboxylate], in experiment [1], the “ChT-L inhibitory activity in words” value is “decreased activity” and the IC50 worked out at 33.5 µM.
Regarding “tRpt6: 10-residue peptide derived from C-terminal fragment of Rpt6 (KNMSIKKLWK) [reference compound]”, in experiment [2], the “effect of peptide alone on proteasome activity” value was “did not affect the proteasome activity”.
